From publication PMC10846240, “Pharmacokinetic/pharmacodynamic integration of amphenmulin: a novel pleuromutilin derivative against Mycoplasma gallisepticum” (Microbiology Spectrum, 2023)
“And” between values parts separate entries of the source, which are not always exact repeats. Identical values can stand only once. Like-named read-outs stand apart in the source and are kept apart here.

What was measured:
[1] = In vivo pharmacokinetics of amphenmulin in chickens (IV, IM, PO); details: for Cmax: mean ± SD, n = 10; for bioavailability: read-out: F (absolute bioavailability)
Experimental: The M. gallisepticum standard strain S6 was obtained from the National Center for Veterinary Culture Collection (Beijing, China). Amphenmulin (98%) was synthesized by our laboratory according to the published methods ([10]). Acetonitrile and all other liquid chemicals used were purchased from Macklin Biochemical Technology Co., Ltd (Shanghai, China). M. gallisepticum in this study was cultured under standard conditions of 37°C with the following nutrients: swine serum, M. gallisepticum artificial medium base from Qingdao Hope Biological Technology Co., Ltd (Qingdao, China), nicotinamide adenine dinucleotide (NADH) and cysteine from Aladdin Biochemical Technology Co., Ltd (Shanghai, China). Thirty healthy adult yellow-feathered broilers weighing 1.58 to 2.04 kg were used in this study, caged, fed without antibiotics and anticoccidial drugs, and watered and fed ad libitum. All animal experimental procedures were approved by the Animal Ethics Committee of South China Agricultural University (Approval number: 2023a015).
In this study, the dose design for the administration of amphenmulin was mainly based on the previous study report on tiamulin ([15]). The chickens were randomly divided into three groups (10 per group) and given a single dose of 20 mg/kg of body weight (bw.) of amphenmulin via intravenous, intramuscular injection, and oral gavage, respectively. Blood samples were collected from the brachial wing vein of each chicken at 0, 5, 10, 15, 30, 45 min, 1, 2, 3, 4, 6, 8, 10, 12, 24 h after intravenous injection, and at 0, 3, 6, 9, 12, 20, […], 45 min, 1, 2, 4, 8, 12, 24 h after oral and intramuscular administrations. The blood samples were centrifuged at 3,500 rpm for 10 min. The plasma was collected and stored at −20°C until analysis.
After the plasma samples were restored to room temperature, 200 µL was taken and vortexed with 800 µL of acetonitrile, centrifuged at 12,000 rpm for 10 min. The supernatant was filtered through a 0.22-µm filter and analyzed using a high-performance liquid chromatography-tandem mass spectrometry (HPLC-MS/MS) system (Agilent 1200 HPLC and Applied Biosystem API4000 mass spectrometer, ABI Sciex, USA). Amphenmulin was separated on a C18 column (150 mm × 2 mm, 5 µm) at a flow rate of 0.5 mL/min, with a mobile phase of 0.1% aqueous formic acid and acetonitrile (40:60, vol/vol). The electrospray ionization (ESI) source of the mass spectrometer was operated in positive ion mode for multi-reaction monitoring, with the following ion source parameters: ion spray voltage 4,500 V, collision gas 5 psi, ion source gas1 50 psi, ion source gas2 55 psi, curtain gas 20 psi, source temperature 400°C.
Additionally, the plasma concentration–time data of amphenmulin in each individual were further analyzed using the non-compartmental method in Phoenix 8.1 (Certara, USA) to calculate pharmacokinetic parameters, in which the area under the curve (AUC) was calculated using the log-linear trapezoidal method, and the results were reported as mean ± standard deviation (SD).

M. gallisepticum [2] = test: In vitro dynamic model (one-compartment, first-order elimination); type: cell-based, Mycoplasma gallisepticum
Experimental: According to previous reports ([21][–][23]), an in vitro model compatible with M. gallisepticum growth and amphenmulin pharmacokinetics was developed ([24]). It comprised a reservoir chamber containing fresh, drug-free medium; a reaction chamber with a three-necked flask where amphenmulin interacts with M. gallisepticum, containing 300 mL of medium in the outer chamber (external compartment, EC) and 10 mL of M. gallisepticum culture (10^7 CFU/mL) in a semipermeable membrane chamber (internal compartment, IC); and a waste chamber collecting effluent, which were connected via tubing and controlled by a peristaltic pump (Fig. 2). In this model, the flow rate was calculated as 1.63 mL/min from the reaction chamber volume and amphenmulin’s elimination half-life (T1/2Ke) after intravascular administration in chickens, enabling dynamic changes in drug concentrations that simulate amphenmulin elimination in chickens and its activity against M. gallisepticum. The in vitro elimination of amphenmulin followed first-order kinetics:
where C0 is the initial amphenmulin concentration, C is the amphenmulin concentration at time t, k is the elimination rate constant, and t is the time after dosing. […]
The determination of amphenmulin in the medium referenced our laboratory’s method for extracting tiamulin ([25]) and was also detected by the HPLC-MS/MS method mentioned in the PK section.

[3] = tested on: methicillin-resistant Staphylococcus aureus (MRSA); details: cited from earlier work
M. gallisepticum [4] = test: PK/PD integration, inhibitory Sigmoid Emax model; type: cell-based, Mycoplasma gallisepticum; details: for Emax: inhibitory Emax model
Experimental: Phoenix software was used to analyze the in vitro concentration–time data of amphenmulin and calculate the AUC and peak concentration (Cmax), which were combined with MIC to obtain PK/PD parameters. Concurrently, the anti-mycoplasma effect was derived from the dynamic time–kill curve, which was analyzed with the PK/PD index using an inhibitory Sigmoid Emax model as follows:
E=E0−(E0−Emax)×CeN/EC50N+CeN
E, anti-mycoplasma effect, the change in M. gallisepticum counts during 24 h of cultivation; E0, M. gallisepticum change in control (without drug); Emax, maximal effect produced by amphenmulin against M. gallisepticum during 24 h; Ce, PK/PD parameters (AUC/MIC or Cmax/MIC); EC50, the Ce value needed to produce 50% of maximal effect; N, Hill coefficient, the slope of the fitted curve.

[5] = yellow-feathered broilers, plasma, 20 mg/kg bw., IM
[6] = yellow-feathered broilers, plasma, 20 mg/kg bw., IV
[7] = yellow-feathered broilers, plasma, 20 mg/kg bw., PO

C=C[C@]1(C)C[C@@H](OC(=O)CSc2ccccc2N)[C@]2(C)[C@H](C)CC[C@]3(CCC(=O)[C@H]32)[C@@H](C)[C@@H]1O [amphenmulin, 22-(2-amino-phenylsulfanyl)-22-deoxypleuromutilin]
T1/2Ke ([1]; 20 mg/kg bw., IM): 5.50 ± 1.43 h | T1/2Ke ([1]; 20 mg/kg bw., IV, 20 mg/kg): 2.13 h and 2.13 ± 0.63 h | T1/2Ke ([1]; 20 mg/kg bw., PO): 2.60 ± 0.87 h | oral absorption rate constant (Ka) ([1]; oral, residual method): approximately 3.15 1/h | Tmax ([1]; yellow-feathered broilers, chicken, plasma, other: oral and intramuscular, 20 mg/kg bw., two extravascular routes (oral and intramuscular), read-out: time to peak levels after administration): < 0.5 h | AUC(0-inf) [1, 5]: 9850 ± 2720 ng·h/mL | AUC(0-t) [1, 5]: 9160 ± 2650 ng·h/mL | MRT [1, 5]: 7.89 ± 2.75 h | k el [1, 5]: 3.61e-05 s⁻¹ | Cmax [1, 5]: 1930 ± 480 ng/mL | bioavailability [1, 5]: 52.1% | Tmax ([1]; yellow-feathered broilers, plasma, 20 mg/kg bw., IM, read-out: Tmax): 0.38 ± 0.2 h | AUC(0-inf) [1, 6]: 18900 ± 6030 ng·h/mL | AUC(0-t) [1, 6]: 18800 ± 6090 ng·h/mL | MRT [1, 6]: 3.13 ± 1.05 h | clearance [1, 6]: 19.5 mL/min/kg | k el [1, 6]: 9.72e-05 s⁻¹ | Vd ([1]; yellow-feathered broilers, plasma, 20 mg/kg bw., IV, read-out: Vss): 3.64 ± 1.58 L/kg | AUC(0-inf) [1, 7]: 1110 ± 430 ng·h/mL | AUC(0-t) [1, 7]: 1060 ± 400 ng·h/mL | MRT [1, 7]: 2.98 ± 1.05 h | k el [1, 7]: 8.06e-05 s⁻¹ | Cmax [1, 7]: 730 ± 360 ng/mL | bioavailability [1, 7]: 5.88% | Tmax ([1]; yellow-feathered broilers, plasma, 20 mg/kg bw., PO, read-out: Tmax): 0.25 ± 0.11 h | mycoplasma numbers at the highest dose (M. gallisepticum [2]; counting limit): < 100 CFU/mL | maximum decrease of M. gallisepticum counts within 0–72 h (M. gallisepticum [2]; doses of 0.1–0.5 μg/mL): ≤ 2.82 Log10CFU/mL | antibacterial activity against MRSA compared with tiamulin [3]: better antibacterial activity | static kill curve against MRSA, character of effect [3]: more time-dependent tendency and bacteriostatic effects | AUC24 h/MIC target value (M. gallisepticum [4]; for a decrease of 1 Log10CFU/mL of M. gallisepticum): 904.05 h | Emax (M. gallisepticum [4]; index AUC24 h/MIC): −2.4214 Log10CFU/mL | Emax (M. gallisepticum [4]; index Cmax/MIC): −3.3571 Log10CFU/mL
